{"source": "patent US12269800B2", "about": "“Delivery of therapeutic alkaloid compounds” (priority 2021, dated 2025)", "key": {"[1]": {"assay_type": "physicochemical", "conditions": "acidic pH 2.0, 25 or 37° C.", "protocol": "The hydrolysis kinetics was under a certain temperature and measured by LCMS at a certain time interval. The corresponding LCMS chromatograms were recorded and the conversions were calculated. The hydrolysis conditions and the data were summarized in below table. LCMS spectra were obtained using Agilent 1200G1956A or SHIMADZU LCMS-2020. Standard LCMS conditions were as follows (running time 1.55 minutes):\nAcidic condition: Mobile Phase A: 0.0375% TFA in water (v/v). Mobile Phase B: 0.01875% TFA in acetonitrile (v/v); Column: Kinetex EVO C18 30*2.1 mm, 5 μm.\nBasic condition: Mobile Phase A: 0.025% NH3—H2O in water (v/v). Mobile Phase B: Acetonitrile; Column: Kinetex EVO C18 2.1×30 mm, 5 μm.\nConversion (%)=peak area 1/(peak area 1+peak area 2)*100%, peak area 1 is the integration of hydrolyzed product, peak area 2 is the integration of starting material."}, "SERT": {"target": "T1, SERT (Homo sapiens, UniProt P31645)", "T1 construct": "expressed in transfected cells", "T1 sequence (P31645 whole entry, species assumed)": "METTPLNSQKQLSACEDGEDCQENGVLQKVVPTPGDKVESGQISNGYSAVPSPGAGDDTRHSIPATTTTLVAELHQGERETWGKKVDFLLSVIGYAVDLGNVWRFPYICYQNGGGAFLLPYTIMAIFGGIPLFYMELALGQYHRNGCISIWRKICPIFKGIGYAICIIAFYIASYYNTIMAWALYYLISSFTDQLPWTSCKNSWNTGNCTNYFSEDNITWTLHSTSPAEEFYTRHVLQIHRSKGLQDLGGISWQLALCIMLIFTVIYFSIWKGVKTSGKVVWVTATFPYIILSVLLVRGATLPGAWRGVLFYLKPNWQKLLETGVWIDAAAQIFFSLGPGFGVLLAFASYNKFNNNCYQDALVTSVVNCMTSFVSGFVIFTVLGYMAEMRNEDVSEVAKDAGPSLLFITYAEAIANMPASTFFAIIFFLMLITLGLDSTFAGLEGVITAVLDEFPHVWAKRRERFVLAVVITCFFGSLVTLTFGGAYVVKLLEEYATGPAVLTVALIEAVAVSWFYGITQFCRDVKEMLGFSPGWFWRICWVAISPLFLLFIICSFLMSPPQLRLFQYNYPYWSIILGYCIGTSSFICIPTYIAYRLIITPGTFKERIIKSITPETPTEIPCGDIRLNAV", "assay": "cell-based", "conditions": "stable 5HTT cells, 30 minutes at 37° C."}, "[2]": {"conditions": "in vivo; cited from earlier work"}, "[3]": {"assay_type": "physicochemical", "conditions": "DI water, 25° C., 0.5 mM"}, "[4]": {"conditions": "2 mg/kg iv in rat", "protocol": "Brain samples were homogenized with PBS (W/V, 1:3). Plasma/brain samples were mixed with acetonitrile containing internal standard. The samples were vortexed then centrifuged at 4 degrees Celsius for 15 minutes. The supernatant was diluted with water (1:2 V/V) and analyzed by LC/MS/MS for quantitative analysis. […] Area under the curve (AUC) was calculated and divided by dose to account for molecular weight difference of prodrug and metabolite (AUC/D)."}, "[5]": {"assay": "Hydrolysis Assay of Example A2, Condition 1 (SGF with pepsin, pH 1.5, 37° C.)", "assay_type": "physicochemical", "conditions": "SGF with pepsin pH 1.5, 37° C., 0.5 mM"}}, "note": "Read-outs that look alike come from different tables or passages of the source."}
{"compound": "COc1ccc([C@@]23CCC(=NO)C[C@@H]2N(C)CC3)cc1OC", "note": "(mixture of isomers) [Compound 037]", "values": [{"measurement": "conversion to mesembrine", "setting": "[1]", "result": "converted to mesembrine"}, {"measurement": "IC50", "setting": "SERT", "result": "< 50", "unit": "nM"}]}
{"compound": "COc1ccc([C@@]23CCC(=O)C[C@@H]2N(C)CC3)cc1OC", "note": "[(−) mesembrine]", "values": [{"measurement": "half-life in plasma", "setting": "[2]", "result": "less than 2 hours"}]}
{"compound": "CCC(C)CC(=O)OC1=C[C@@H]2N(C)CC[C@]2(c2ccc(OC)c(OC)c2)CC1", "note": "(stereo partly drawn) [Compound 316, [(3aS,7aS)-3a-(3,4-dimethoxyphenyl)-1-methyl-3,4,5,7a-tetrahydro-2H-indol-6-yl]3-methyl pentanoate]", "values": [{"measurement": "Condition 2 Conversion (%)", "setting": "[3]; time 1 min", "result": 0, "unit": "%"}, {"measurement": "Condition 2 Conversion (%)", "setting": "[3]; time 5 min", "result": 0, "unit": "%"}, {"measurement": "Condition 2 Conversion (%)", "setting": "[3]; time 30 min", "result": 0, "unit": "%"}, {"measurement": "Condition 2 Conversion (%)", "setting": "[3]; time 1 h", "result": 0, "unit": "%"}, {"measurement": "Condition 2 Conversion (%)", "setting": "[3]; time 4 h", "result": 0, "unit": "%"}, {"measurement": "Condition 2 Conversion (%)", "setting": "[3]; time 24 h", "result": 0, "unit": "%"}, {"measurement": "conversion to 001 in vivo", "setting": "[4]", "result": "converts to 001 in vivo"}, {"measurement": "Condition 1 Conversion (%)", "setting": "[5]; time 1 min", "result": 0, "unit": "%"}, {"measurement": "Condition 1 Conversion (%)", "setting": "[5]; time 5 min", "result": 0, "unit": "%"}, {"measurement": "Condition 1 Conversion (%)", "setting": "[5]; time 30 min", "result": 0, "unit": "%"}, {"measurement": "Condition 1 Conversion (%)", "setting": "[5]; time 1 h", "result": 0, "unit": "%"}, {"measurement": "Condition 1 Conversion (%)", "setting": "[5]; time 4 h", "result": 0, "unit": "%"}, {"measurement": "Condition 1 Conversion (%)", "setting": "[5]; time 24 h", "result": 0, "unit": "%"}]}
